Test results taken from article PMC3196554 (Chemical research in toxicology, 2010).
Like-named read-outs stand apart in the source and are kept apart here.

How the values were obtained:
[1] = cited from earlier work
[2] = for Amount in urine collected for 10 h after consumption of cooked beef: Mean ± SD of 3 independent measurements; for % Dose in urine collected for 10 h after consumption of cooked beef: metabolites as % of dose of parent MeIQx or PhIP
[3] = 14C-PhIP; cited from earlier work
P450 1A2 [4] = conditions: subjects given furafylline prior to cooked beef; cited from earlier work
P450 1A2 [5] = conditions: human hepatocytes pretreated with furafylline; cited from earlier work

Cn1c(N)nc2ncc(-c3ccccc3)cc21 [PhIP, 2-amino-1-methyl-6-phenylimidazo[4,5-b]pyridine]
pKa [1]: 5.65 | Amount in urine collected for 10 h after consumption of cooked beef ([2]; Subject S-001): 37.1 ± 3.3 ng | % Dose in urine collected for 10 h after consumption of cooked beef ([2]; Subject S-001): 0.8 % Dose | Amount in urine collected for 10 h after consumption of cooked beef ([2]; Subject S-003): 6.5 ± 1.1 ng | % Dose in urine collected for 10 h after consumption of cooked beef ([2]; Subject S-003): 0.1 % Dose | Amount in urine collected for 10 h after consumption of cooked beef ([2]; Subject S-005): 11.4 ± 0.9 ng | % Dose in urine collected for 10 h after consumption of cooked beef ([2]; Subject S-005): 0.2 % Dose | Amount in urine collected for 10 h after consumption of cooked beef ([2]; Subject S-008): 9.5 ± 0.6 ng | % Dose in urine collected for 10 h after consumption of cooked beef ([2]; Subject S-008): 0.2 % Dose | Amount in urine collected for 10 h after consumption of cooked beef ([2]; Subject S-009): 18.5 ± 1.6 ng | % Dose in urine collected for 10 h after consumption of cooked beef ([2]; Subject S-009): 0.4 % Dose | Amount in urine collected for 10 h after consumption of cooked beef ([2]; Subject S-012): 17.0 ± 0.7 ng | % Dose in urine collected for 10 h after consumption of cooked beef ([2]; Subject S-012): 0.3 % Dose | Amount in urine collected for 10 h after consumption of cooked beef ([2]; Subject S-013): 14.1 ± 1.2 ng | % Dose in urine collected for 10 h after consumption of cooked beef ([2]; Subject S-013): 0.3 % Dose | Amount in urine collected for 10 h after consumption of cooked beef ([2]; Subject S-014): 8.9 ± 0.6 ng | % Dose in urine collected for 10 h after consumption of cooked beef ([2]; Subject S-014): 0.2 % Dose | Amount in urine collected for 10 h after consumption of cooked beef ([2]; Subject S-015): 8.2 ± 1.0 ng | % Dose in urine collected for 10 h after consumption of cooked beef ([2]; Subject S-015): 0.2 % Dose | Amount in urine collected for 10 h after consumption of cooked beef ([2]; Subject S-020): 18.9 ± 1.6 ng | % Dose in urine collected for 10 h after consumption of cooked beef ([2]; Subject S-020): 0.4 % Dose | Proportion of the dose eliminated in urine within 24 h as isomeric HON-PhIP-N-glucuronide conjugates [3]: approximately 50% | Share of elimination accounted for by P450 1A2 (P450 1A2 [4]): 70%

Cc1nc2c([nH]1)c(=O)n(C)c(=O)n2Cc1ccco1 [furafylline]
Inhibition of formation of 8-CH2OH-IQx, IQx-8-COOH and glucuronide conjugates of HONH-MeIQx and HONH-PhIP (P450 1A2 [5]): inhibited to a similar degree
